Experiments:
[1] = Stability in phosphate buffer assessed as hydrolysis at pH 7.4 after 3 days; type: physicochemical; conditions: read-out: Activity
[2] = Stability in presence of alpha-chymotrypsin at 100 mM after 12 hrs; type: ADME; conditions: 100000 µM
[3] = Stability assessed as hydrolysis half life in presence of alpha-chymotrypsin; type: ADME

N[C@@H](Cc1ccccc1)C(=O)N[C@H]1CCOP(=O)(N(CCCl)CCCl)N1 (some centres undefined)
degraded at 72 h [1]: < 10% | Activity [2]: Not Active

N[C@@H](Cc1ccccc1)C(=O)N[C@@H]1CCOP(=O)(N(CCCl)CCCl)N1 (some centres undefined)
degraded at 72 h [1]: < 10% | Activity [2]: Not Active

O=C(N[C@@H](Cc1ccccc1)C(=O)N[C@@H]1CCOP(=O)(N(CCCl)CCCl)N1)OCc1ccccc1 (some centres undefined)
half-life ([3]; alpha-chymotrypsin): > 12 h | Activity [2]: Active

O=C(N[C@@H](Cc1ccccc1)C(=O)N[C@H]1CCOP(=O)(N(CCCl)CCCl)N1)OCc1ccccc1 (stereo in doubt; cis)
t1/2 [3]: 0.333 h | Activity [2]: Active

O=C(N[C@@H](Cc1ccccc1)C(=O)N[C@H]1CCOP(=O)(N(CCCl)CCCl)N1)OCc1ccccc1 (stereo in doubt; trans)
t1/2 [3]: 8.9 h

Source: ChEMBL document CHEMBL1138392, “Phenylalanyl-aminocyclophosphamides as model prodrugs for proteolytic activation: synthesis, stability, and stereochemical requirements for enzymatic cleavage” (Bioorg Med Chem Lett, 2007)
